Data on four compounds can be found in patent US6046228A, “Anti-viral pharmaceutical compositions containing saturated 1,2-dithiaheterocyclic compounds and uses thereof” (priority 1999, dated 2000).

“And” between values parts separate entries of the source, which are not always exact repeats. Identical values can stand only once. Like-named read-outs stand apart in the source and are kept apart here.

Experiment [1] deals with monocyte-macrophage (Mo/M.PHI.) cultures. As to the kind of experiment: cytotoxicity in monocyte-macrophage cultures. In kind it is cell-based. As for the experimental part:
(§1) Initial anti-HIV screening was performed with CEM-SS cells and HIV-1RFusing the XTT cytoprotection assay as previously described (Weislow et al., J. National Cancer Inst. 81: 577-586, (1989)). HIV-1 isolates included common laboratory stains (RF, IIIB and MN), as well as a panel of HIV-1 clinical isolates (Cushman et al., J. Med. Chem. 37: 3040-3050, (1994)). The pyridone-resistant HIV-1A17 isolate (Nunberg et al., J. Virol., 65: 4887-4892 (1991)) was obtained from Emilio Emini at Merck Sharpe and Dohme Laboratories. Phytohemagglutinin-stimulated human peripheral blood lymphocytes (PBLs) and fresh monocyte-macrophage (Mono/MF) cultures were prepared and utilized in antiviral assays as previously described (Rice et al., Proc. Nat'l. Academy Science, USA 90: 9721-9724, (1993)); (Cushman et al., J. Med. Chem. 37: 3040-3050, (1994)). EC50 values for these cultures indicate the drug concentration that provided a 50% reduction in viral p24 production. […] The compounds can be synthesized according to the teachings of Singh et al., Sulfur Letters 8: 107-114, (1988). The 4,5-cis-dihydroxy(1,1-dioxy-1,2,-dithiohexane) compound (NSC 624151) has been abbreviated as 624151 for convenience. MT-2, MT-4, U1, HeLa-CD4-LTR-β-gal and 174xCEM cells were obtained from the AIDS Research and Reference Program (National Institute of Allergy and Infectious Disease, National Institutes of Health, Bethesda, Md. USA), as were the HIV-2MS and the AZT-resistant HIV-1G910-6 isolates.

Experiment [2] relates to HIV-1RF. As to the kind of experiment: XTT cytoprotection (cytopathicity) anti-HIV assay, CEM-SS cells. In kind it is cell-based. Particulars: for antiviral activity / efficacy: in words. As for the experimental part: as §1, with “The 4,5-cis-dihydroxy(1,1-dioxy-1,2,-dithiohexane) compound (NSC 624151) has been abbreviated as 624151 for convenience.” left out
(§2) Racemate and enantiomers of the cis-1,1-dioxo[1,2]dithiane-4,5-diol were synthesized and evaluated for antiviral activity in the XTT assay as described hereinabove.

In a further experiment the test system is HIV-1ADA. Kind of experiment: antiviral assay in monocyte-macrophage cultures (p24). In kind it is cell-based. As for the experimental part: as §1, with “isolates. […]” for “isolates.”
The target of a further experiment is T1, HIV-1 p7NC protein (Human immunodeficiency virus type 1 group M subtype B, UniProt P04591).
T1 construct: recombinant HIV-1 p7NC protein
As to the kind of experiment: Trp37 zinc finger fluorescence assay (zinc ejection from p7NC). In kind it is biochemical. Particulars: for p7NC Trp37 Assay (RFU): 25 μM compound, listed as 693194. As for the experimental part:
Fluorescence measurements of the Trp^37 residue in the C-terminal zinc finger of the recombinant HIV-1 p7NC protein were performed as previously described (Rice et al., Science 270:1194, 1995). The p7NC protein was prepared at 20 μg/ml in 10 mM sodium phosphate buffer (pH 7.0), treated with 25 μM of each compound, then after indicated time intervals the samples were diluted 1/10 in 10 mM sodium phosphate buffer (pH 7.0) and the fluorescence intensity measured. The excitation and emission wavelengths utilized with the Shimadzu RF5000 spectrofluorimeter were 280 nm and 351 nm, respectively. In an alternate assay, the zinc-selective fluorescent probe N-(6-methoxy-8quinolyl-)-p-toluenesulfonamide (TSQ, Molecular Probes, Eugene, Oreg.) originally described by Fredrickson (J. Neurosci. Meth. 20:91, 1987) was utilized to measure zinc released from the p7NC protein in vitro. Briefly, 2 μM recombinant HIV-1 p7NC protein in 10 mM sodium phosphate buffer, pH 7.0, 10% glycerol was treated with 10 μM 624151 ([…] total volume in 96-well plates), and the time-dependent increase in fluorescence was measured on a Labsystems Fluoroskan II (360 nm excitation filter and 460 nm emission filter) over a period of 2 hours. Induction of alterations of p7NC proteins within intact virions involved treatment of HIV-1MN for 1 hour at 37° C. with 25 μM test compound. Samples were centrifuged 1 hour at 4° C. under 18,000×g to pellet the virus from the drug. Virus pellets were resolved by non-reducing SDS-PAGE and analyzed by immunoblot using monospecific rabbit antisera to the purified p7NC protein.
^b The percent decrease in RFU was calculated based on measurement of
the initial fluorescence of the p7NC protein before and 10 minutes after
treatment with the 25 μM of compound at ambient temperature.
The ability of 624151 to chemically interact with the zinc fingers of the HIV-1 p7NC protein was initially determined by a fluorescence assay (Rice et al., Science 270:1194-1197, (1995)) that measures a loss in intrinsic fluorescence of the tryptophan (Trp^37) residue in the second finger of the protein that occurs upon loss of zinc from the finger (Summers et al., Protein Sci. 1:563, 1992). […] As the 624151 modifies the zinc finger thiolates and the zinc is ejected over time, the metal is bound by the TSQ fluorochrome (FIG. 1(B)).
Sodium Phosphate buffer, pH 7.0 in 1 ml was treated with 25 μM of
compound. At indicated times, the mixture was diluted 1/10 and the
relative fluorescence units (RFU) measured in a Shimadzu RF5000
spectrofluorimeter with […] and Em = 351 mn. Following
loss of zinc from the Cterminal zinc finger, the Trp37 residue folds away
from the # aqueous environment and experiences a loss of fluorescence.

A further experiment concerns CEM-SS cells. Kind of experiment: XTT assay, cytotoxicity (IC50), CEM-SS cells. Type of experiment: cell-based. As for the experimental part:
as §1, with “The 4,5-cis-dihydroxy(1,1-dioxy-1,2,-dithiohexane) compound (NSC 624151) has been abbreviated as 624151 for convenience.” left out
as §2
For orientation: Formazan colour is commonly taken as a measure of viable cells.

The target in another experiment is T2, HIV-1 integrase (Human immunodeficiency virus type 1 group M subtype B, UniProt P04585).
T2 construct: the purified HIV-1 protease and integrase enzymes
Kind of experiment: HIV-1 integrase activity. Particulars: Table 6. In kind it is biochemical.

Experiment [3] concerns HIV-1RF. As to the kind of experiment: effect of increasing multiplicity of infection, CEM-SS cells. In kind it is cell-based. Particulars: for EC50: Human immunodeficiency virus 1, CEM-SS. As to the method:
as §1

The next experiment addresses T3, HIV-1 p66-p51 RT (Human immunodeficiency virus type 1 group M subtype B, UniProt P04585).
T3 construct: the purified HIV-1 p66-p51 RT enzyme
As to the kind of experiment: reverse transcriptase activity assay. In kind it is biochemical. As to conditions: nonphosphorylated control, in words. As to the method:
The effects of 624151 on the in vitro activity of purified RT was determined by measurement of incorporation of [^3 H]TTP onto the poly(rA):oligo(dT)(rAdT) or poly(rC):oligo(dG)(rCdG) homopolymer template/primer systems. Samples (5 μL) were blotted onto DE81 paper, washed with 5% dibasic sodium phosphate as previously described (Buckheit et al., Antiviral Res. 21:247, (1993)), and then quantitated on a Packard Matrix 9600 dual beam counter. 3'-Azido-3'-deoxythymidine-5 '-triphosphateand UC38 (NSC 629243) served as positive controls for inhibition of RT. HIV-1 protease activity was quantitated by a reversed phase HPLC assay utilizing the […]Amide substrate (Multiple Peptide Systems, San Diego, Calif.) as previously described in Rice et al. (Proc. Nat'l. Academy of Science USA 9: 9721-9724, (1993)).

Setting [4] is: Human immunodeficiency virus 1, CEM-SS, CEM-SS cells, HIV-1RF, read-out: XTT Assay EC50.
Where [5] appears, read: Homo sapiens, CEM-SS, cytotoxicity, CEM-SS cells, read-out: XTT Assay IC50.
Setting [6] is: Human immunodeficiency virus 1, CEM-SS, Table 5, read-out: EC50 Mean.
The mark [7] stands for this setting: Homo sapiens, CEM-SS, Table 5, cytotoxicity, read-out: IC50 Mean.

By IC50 is commonly meant the concentration at which inhibition is half-maximal. In the case of `O=S1(=O)C[C@@H](O)[C@H](O)CS1` (relative stereo) [NSC 624152], the half-maximal inhibitory concentration (IC50) was greater than 100 µM in experiment [1] and 135 µM with CEM-SS cells (setting [5]). For the same compound, the EC50 was 13.1 µM in the experiment with HIV-1RF [2] (setting [4]) and 9.1 µM with HIV-1ADA (Human immunodeficiency virus 1, HIV-1ADA, monocyte/macrophage cultures, 50% reduction in p24, read-out: Mo/M.PHI. EC50). Also, in the experiment with HIV-1RF [2], the “antiviral activity / efficacy” value was “only a slight reduction in the antiviral efficacy”. Moreover, on HIV-1 p7NC protein (in words), the “reactivity with the zinc fingers” value is reported as “equivalent reactivity with the zinc fingers”.
Consider `O=S1(=O)C[C@H](O)[C@H](O)CS1` (single isomer, unassigned) [NSC 693194, (+)-cis-4,5-Dihydroxy-1,2-dithiane 1,1-dioxide], for which the EC50 in the experiment with HIV-1RF [2] (setting [4]) is 16 µM; with HIV-1RF [2] (setting [6]), 16.2 µM; in the experiment on HIV-1RF [2] (Table 5, listed as 693194, read-out: EC50 Duplicates), 18.6 µM and 13.7 µM. In addition, on HIV-1 integrase, the “inhibition of HIV-1 integrase” value was “NI100”. The “p7NC Trp37 Assay (RFU)” value on HIV-1 p7NC protein (0 min) is 280 RFU; at HIV-1 p7NC protein (3 min), 146 RFU; on HIV-1 p7NC protein (10 min), 75 RFU; at HIV-1 p7NC protein (30 min), 41 RFU. In addition, the IC50 was 134 µM in the experiment on CEM-SS cells (Homo sapiens, CEM-SS, Table 5, cytotoxicity, read-out: IC50 Duplicates); 134 µM with CEM-SS cells (setting [7]); 134 µM in the experiment with CEM-SS cells (setting [5]); 133 µM in the experiment on CEM-SS cells (Table 5, cytotoxicity, listed as 693194, read-out: IC50 Duplicates).
On to `CC(=O)O[C@@H]1CSSC[C@H]1OC(C)=O` (relative stereo) [NSC 667092], for which the IC50 is greater than 100 µM in experiment [1] and greater than 200 µM with CEM-SS cells (setting [5]). In addition, in the experiment with HIV-1RF [2], the “antiviral activity / efficacy” value is reported as “complete abolition of antiviral activity”. For the same compound, the EC50 in the experiment on HIV-1ADA (Human immunodeficiency virus 1, read-out: Mo/M.PHI. EC50) is greater than 100 µM. Besides, the “reactivity with the zinc fingers” value on HIV-1 p7NC protein (in words) was “essentially a complete loss of reactivity with the zinc fingers”.
Regarding `Cc1cn([C@H]2C[C@H](N=[N+]=[N-])[C@@H](CO)O2)c(=O)[nH]c1=O` [AZT, 3'-azido-3'-deoxythymidine], the EC50 in the experiment with HIV-1RF [3] (MOI 0.01) was 0.019 µM; in the experiment with HIV-1RF [3] (MOI 0.02), 0.024 µM; with HIV-1RF [3] (MOI 0.04) it was 1.57 µM; in the experiment on HIV-1RF [3] (MOI 0.08), greater than 10 µM; in the experiment with HIV-1RF [3] (MOI 0.16), greater than 10 µM; in the experiment on HIV-1RF [3] (MOI 0.32), greater than 10 µM. Besides, the EC50 in the experiment on HIV-1RF [3] (lowest MOI) was 0.0189 µM; in the experiment with HIV-1RF [2] (Human immunodeficiency virus 1, CEM-SS, Table 5, read-out: EC50 Duplicates) it was 0.0054 µM; with HIV-1RF [2] (setting [6]) it was 0.0056 µM; with HIV-1RF [2] (Table 5, read-out: EC50 Duplicates), 0.0057 µM. Further, the “effect of increasing the MOI on activity” value in the experiment with HIV-1RF [3] (in words) is “completely inactive after only a six-fold increase in the MOI”. Besides, the “inhibition of RT activity” value against HIV-1 p66-p51 RT is “not inhibitory”. At HIV-1 p7NC protein (FIG. 1(A), 25 μM, in words), the “loss of Trp37 fluorescence of p7NC” value is “not by AZT control”. Further, in the experiment on CEM-SS cells (setting [7]), the IC50 was greater than 1 µM.
